Measurements from patent publication US20120016000A1, “METHOD TO ASSAY PHOSPHOLIPID AND TRIGLYCERIDE TRANSFER ACTIVITY OF MICROSOMAL TRIGLYCERIDE TRANSFER PROTEIN” (priority 2010, published 2012).

Legend:
[1] = guinea pigs; cited from earlier work
[2] = target: T1, purified bovine liver MTP (Bos taurus, UniProt P55156); assay: Fluorescence triglyceride (NBD-TG) transfer activity assay of MTP; assay type: biochemical; settings: dose-dependent inhibition, FIG. 5A
T1 construct: purified bovine liver MTP; from tissue; host or cells: bovine liver
T1 sequence (P55156 19-887 limits assumed): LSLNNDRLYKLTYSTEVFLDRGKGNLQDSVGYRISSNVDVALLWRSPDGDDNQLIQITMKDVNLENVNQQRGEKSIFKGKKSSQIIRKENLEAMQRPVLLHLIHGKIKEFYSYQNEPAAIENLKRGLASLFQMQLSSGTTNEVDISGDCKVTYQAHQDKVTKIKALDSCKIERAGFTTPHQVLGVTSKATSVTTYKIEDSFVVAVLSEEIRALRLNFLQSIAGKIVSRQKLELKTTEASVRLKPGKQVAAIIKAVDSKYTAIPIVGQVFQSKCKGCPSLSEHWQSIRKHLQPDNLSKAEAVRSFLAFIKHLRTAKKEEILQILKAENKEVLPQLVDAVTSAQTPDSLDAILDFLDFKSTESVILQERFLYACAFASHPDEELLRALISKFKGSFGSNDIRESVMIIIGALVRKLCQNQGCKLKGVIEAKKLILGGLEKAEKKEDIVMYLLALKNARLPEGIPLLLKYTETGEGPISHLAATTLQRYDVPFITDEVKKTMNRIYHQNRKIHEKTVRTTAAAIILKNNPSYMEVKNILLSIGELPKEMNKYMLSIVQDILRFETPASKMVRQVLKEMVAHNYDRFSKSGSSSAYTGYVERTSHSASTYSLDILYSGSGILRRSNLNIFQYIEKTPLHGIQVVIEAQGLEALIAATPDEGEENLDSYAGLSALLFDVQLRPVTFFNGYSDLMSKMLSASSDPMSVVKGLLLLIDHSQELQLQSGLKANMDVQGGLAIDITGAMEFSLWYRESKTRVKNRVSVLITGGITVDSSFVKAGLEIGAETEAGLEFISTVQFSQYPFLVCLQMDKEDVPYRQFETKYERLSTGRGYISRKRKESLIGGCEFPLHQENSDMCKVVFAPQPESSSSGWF
T1 sequence (P05307 21-510 partner): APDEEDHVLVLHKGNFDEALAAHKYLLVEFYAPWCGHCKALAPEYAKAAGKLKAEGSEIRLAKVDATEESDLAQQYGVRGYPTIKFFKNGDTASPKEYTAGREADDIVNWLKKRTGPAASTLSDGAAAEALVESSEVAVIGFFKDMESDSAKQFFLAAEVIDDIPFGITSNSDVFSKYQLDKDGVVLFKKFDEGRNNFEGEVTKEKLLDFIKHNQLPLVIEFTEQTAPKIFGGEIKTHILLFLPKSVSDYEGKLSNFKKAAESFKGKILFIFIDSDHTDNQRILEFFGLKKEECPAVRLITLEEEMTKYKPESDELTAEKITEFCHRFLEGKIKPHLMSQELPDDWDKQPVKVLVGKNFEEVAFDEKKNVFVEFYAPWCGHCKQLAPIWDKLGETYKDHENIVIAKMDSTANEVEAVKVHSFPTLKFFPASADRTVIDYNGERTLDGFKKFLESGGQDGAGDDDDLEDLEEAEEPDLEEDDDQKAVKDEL
Description: (§1) The present invention is directed to very selective, simple, rapid and sensitive fluorescence assays to measure triglyceride (NBD-TG) and phospholipid (NBD-PE) transfer by MTP. These assays have been modified and developed into a “mix and measure” format kit that is stable, user friendly, and consists of only two components: a master mix and purified MTP. The master mix contains all the ingredients necessary for MTP activity. In this assay, MTP transfers fluorescent lipids from donor to acceptor vesicles. Lipid fluorescence in these vesicles is mostly quenched. Unquenched fluorescence (˜0.05% of total fluorescence) is measured as background. During the transfer of fluorescent lipids by MTP, fluorescence is exposed to aqueous phase and detected by the Fluorimeter. These fluorescence measurements represent the amount being transferred. Inclusion of antagonist during these assays reduces increases in fluorescence and represents inhibition of the transfer activity. […]
(§2) Increasing amounts of DMSO (0-1%) had no significant effect on both triglyceride (FIG. 3A) and phospholipid (FIG. 3B) transfer activities of MTP. […] Evaluation of signal-to-noise ratio of assay across the entire 96-well plate: Fluorescence in the blank (n=48) and MTP (n=48) was used to determine the values of noise and signal, respectively. […]

[3] = target: T1, purified bovine liver MTP; assay: Fluorescence phospholipid (NBD-PE) transfer activity assay of MTP; assay type: biochemical; settings: dose-dependent inhibition, FIG. 5B
Description: as §1, §2

[4] = in vivo; cited from earlier work

In the case of `CCOC(=O)C(COC(=O)Cc1ccc(NC(=O)c2ccccc2-c2ccc(C(F)(F)F)cc2)c(C(=O)N(C)C)c1)(C(=O)OCC)c1ccccc1` [JTT-130], the hepatic triglyceride [1] is given as “without increasing hepatic triglyceride” and the “plasma triglyceride and LDL cholesterol” value [1] is given as “lower plasma triglyceride and LDL cholesterol”.

With `O=C(Nc1ccc2c(c1)CCN(Cc1ncn[nH]1)C2)c1ccccc1-c1ccc(C(F)(F)F)cc1` [CP-346086] the IC50 [2] was 0.33 nM and the IC50 [3] was 9.4 nM.

For `COc1cccc(C(=O)Nc2ccc3c(c2)CCN(C(=O)Oc2ccccc2)C3)c1-c1ccc(C(F)(F)F)cc1` [SLx-4090], the plasma lipids [4] is listed as “lower plasma lipids”.
